Results as given in patent US7732604B2, “Triazolopyrazine derivatives” (Pfizer Inc., priority 2006, dated 2010).

Target: T1, HGFR (Homo sapiens, UniProt P08581)
T1 construct: purchased Upstate 14-526
Experiment: HGFR continuous-coupled spectrophotometric assay (tyrosine kinase activity on Met-2 substrate peptide)
Type: biochemical
Details: HGFR 50 nM, Met-2 peptide 0.5 mM, ATP 300 μM, 37° C., absorbance 340 nm; read-out: Ki

T1 sequence (P08581 974-1390 limits assumed): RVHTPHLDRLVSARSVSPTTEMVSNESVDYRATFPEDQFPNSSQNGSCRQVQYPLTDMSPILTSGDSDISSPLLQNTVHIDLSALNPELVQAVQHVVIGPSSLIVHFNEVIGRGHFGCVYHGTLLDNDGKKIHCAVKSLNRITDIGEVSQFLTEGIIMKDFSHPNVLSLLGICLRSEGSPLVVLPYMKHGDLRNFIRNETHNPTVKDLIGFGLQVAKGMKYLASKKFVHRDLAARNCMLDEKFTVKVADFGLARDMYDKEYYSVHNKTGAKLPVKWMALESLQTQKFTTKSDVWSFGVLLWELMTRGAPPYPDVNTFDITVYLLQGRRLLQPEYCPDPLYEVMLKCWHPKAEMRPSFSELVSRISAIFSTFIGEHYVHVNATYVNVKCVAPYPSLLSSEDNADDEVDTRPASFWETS

Ki | Compound
37 nM | CN(CCO)c1cnc2nnn(Cc3ccc4ncccc4c3)c2n1 [Example 78, 2-{methyl[1-(quino-lin-6-yl-methyl)-1H-[1,2,3]tri-azolo[4,5-b]py-razin-6-yl]ami-no}ethanol]
11 nM | O=C1CCN(c2cnc3nnn(Cc4ccc5ncccc5c4)c3n2)CCN1 [Example 79, 1-[1-(quinolin-6-yl-methyl)-1H-[1,2,3]tri-azolo[4,5-b]py-razin-6-yl]-14-di-azepan-5-one]
21 nM | OCC1CCN(c2cnc3nnn(Cc4ccc5ncccc5c4)c3n2)CC1 [Example 80, {1-[1-(quinolin-6-yl-methyl)-1H-[1,2,3]tri-azolo[4,5-b]py-razin-6-yl]pipe-ridin-4-yl}methanol]
43 nM | CS(=O)(=O)C1CCN(c2cnc3nnn(Cc4ccc5ncccc5c4)c3n2)C1 (stereo not shown) [Example 81, 6-({6-[3-(meth-ylsulfonyl)pyr-rolidin-1-yl]-1H-[1,2,3]tri-azolo[4,5-b]pyra-zin-1-yl}meth-yl)quinoline]
15 nM | CCN1CCN(c2cnc3nnn(Cc4ccc5ncccc5c4)c3n2)C(C)C1=O (stereo not shown) [Example 82, 1-ethyl-3-meth-yl-4-[1-(quino-lin-6-yl-methyl)-1H-[1,2,3]tri-azolo[4,5-b]pyra-zin-6-yl]pipe-razin-2-one]
34 nM | O=C1CN(c2cnc3nnn(Cc4ccc5ncccc5c4)c3n2)CCN1 [Example 83, 4-[1-(quinolin-6-yl-methyl)-1H-[1,2,3]tri-azolo[4,5-b]py-razin-6-yl]pipe-razin-2-one]
26 nM | CCCN(CCO)c1cnc2nnn(Cc3ccc4ncccc4c3)c2n1 [Example 84, 2-{propyl[1-(quino-lin-6-yl-methyl)-1H-[1,2,3]tri-azolo[4,5-b]pyra-zin-6-yl]amino}ethanol]
12 nM | CN(CCS(C)(=O)=O)c1cnc2nnn(Cc3ccc4ncccc4c3)c2n1 [Example 85, N-methyl-N-[2-(meth-ylsulfonyl)ethyl]-1-(quino-lin-6-yl-methyl)-1H-[1,2,3]tri-azolo[4,5-b]pyra-zin-6-amine]
21 nM | N#CC1CCN(c2cnc3nnn(Cc4ccc5ncccc5c4)c3n2)CC1 [Example 86, 1-[1-(quinolin-6-yl-methyl)-1H-[1,2,3]tri-azolo[4,5-b]py-razin-6-yl]pipe-ridine-4-carbonitrile]
54 nM | CCc1nc(CN(C)c2cnc3nnn(Cc4ccc5ncccc5c4)c3n2)no1 [Example 87, N-[(5-ethyl-124-oxa-diazol-3-yl)meth- ]-N-meth-yl-1-(quino-lin-6-yl-methyl)-1H-[1,2,3]tri-azolo[4,5-b]pyra-zin-6-amine]
50 nM | CC1C(=O)N(C)CCN1c1cnc2nnn(Cc3ccc4ncccc4c3)c2n1 (stereo not shown) [Example 88, 13-dimethyl-4-[1-(quino-lin-6-yl-methyl)-1H-[1,2,3]tri-azolo[4,5-b]pyra-zin-6-yl]pipe-razin-2-one]
41 nM | CN1CCN(c2cnc3nnn(Cc4ccc5ncccc5c4)c3n2)CC1=O [Example 89, 1-methyl-4-[1-(quino-lin-6-yl-methyl)-1H-[1,2,3]tri-azolo[4,5-b]pyra-zin-6-yl]pipe-razin-2-one]
39 nM | CC1(CO)CCCN(c2cnc3nnn(Cc4ccc5ncccc5c4)c3n2)C1 (stereo not shown) [Example 90, {3-methyl-1-[1-(quino-lin-6-yl-methyl)-1H-[1,2,3]tri-azolo[4,5-b]pyra-zin-6-yl]pipe-ridin-3-yl}methanol]
25 nM | CCc1noc(CN(C)c2cnc3nnn(Cc4ccc5ncccc5c4)c3n2)n1 [Example 91, N-[(3-ethyl-124-oxa-diazol-5-yl)meth-yl]-N-meth-yl-1-(quino-lin-6-yl-methyl)-1H-[1,2,3]tri-azolo[4,5-b]pyra-zin-6-amine]
16 nM | c1cnc2ccc(Cn3nnc4ncc(N5CCC(CCn6cccn6)CC5)nc43)cc2c1 [Example 92, 6-[(6-{4-[2-(1H-pyra-zol-1-yl)eth-yl]piperidin-1-yl}-1H-[1,2,3]tri-azolo[4,5-b]pyra-zin-1-yl)meth-yl]quinoline]
29 nM | CN(Cc1cc(-c2ccccn2)no1)c1cnc2nnn(Cc3ccc4ncccc4c3)c2n1 [Example 93, N-methyl-N-[(3-pyri-din-2-ylisoxa-zol-5-yl)meth-yl]-1-(quino-lin-6-yl-methyl)-1H-[1,2,3]tri-azolo[4,5-b]pyra-zin-6-amine]
36 nM | CC1(CO)CCN(c2cnc3nnn(Cc4ccc5ncccc5c4)c3n2)CC1 [Example 94, {4-methyl-1-[1-(quino-lin-6-yl-methyl)-1H-[1,2,3]tri-azolo[4,5-b]pyra-zin-6-yl]pipe-ridin-4-yl}methanol]

Ki | Compound
20 nM | CN(Cc1noc(C2CC2)n1)c1cnc2nnn(Cc3ccc4ncccc4c3)c2n1 [Example 95, N-[(5-cyclo-propyl-1,2,4-oxa-diazol-3-yl)meth-yl]-N-methyl-1-(quino-lin-6-yl-methyl)-1H-[1,2,3]tri-azolo[4,5-b]pyra-zin-6-amine]
17 nM | OC[C@@H]1C[C@H](F)CN1c1cnc2nnn(Cc3ccc4ncccc4c3)c2n1 [Example 96]
20 nM | CCC1C(=O)NCCN1c1cnc2nnn(Cc3ccc4ncccc4c3)c2n1 (stereo not shown) [Example 97, 3-ethyl-4-[1-(quino-lin-6-yl-methyl)-1H-[1,2,3]tri-azolo[4,5-b]pyra-zin-6-yl]pipe-razin-2-one]
13 nM | c1cnc2ccc(Cn3nnc4ncc(N5CCc6[nH]ncc6C5)nc43)cc2c1 [Example 98, 6-{[6-(1,4,6,7-tetra-hydro-5H-pyra-zolo[4,3-c]pyri-din-5-yl)-1H-[1,2,3]tri-azolo[4,5-b]pyra-zin-1-yl]meth-yl}quinoline]
21 nM | O[C@@H]1CCN(c2cnc3nnn(Cc4ccc5ncccc5c4)c3n2)C[C@H]1O [Example 99, (3R,4R)-1-[1-(quino-lin-6-yl-methyl)-1H-[1,2,3]tri-azolo[4,5-b]pyra-zin-6-yl]pipe-ridine-3,4-diol]
23 nM | CC1(O)CCN(c2cnc3nnn(Cc4ccc5ncccc5c4)c3n2)CC1 [Example 101, 4-methyl-1-[1-(quino-lin-6-yl-methyl)-1H-[1,2,3]tri-azolo[4,5-b]pyra-zin-6-yl]piperidin-4-ol]
24 nM | CCc1noc(C2CCN(c3cnc4nnn(Cc5ccc6ncccc6c5)c4n3)CC2)n1 [Example 102, 6-({6-[4-(3-eth-yl-124-oxa-diazol-5-yl)pipe-ridin-1-yl]-1H-[1,2,3]tri-azolo[4,5-b]pyra-zin-1-yl}meth-yl)quinoline]
39 nM | OCC1CCCN1c1cnc2nnn(Cc3ccc4ncccc4c3)c2n1 (stereo not shown) [Example 103, {1-[1-(quinolin-6-yl-methyl)-1H-[1,2,3]tri-azolo[4,5-b]pyra-zin-6-yl]pyrro-lidin-2-yl}methanol]
29 nM | O[C@@H]1C[C@H]2CN(c3cnc4nnn(Cc5ccc6ncccc6c5)c4n3)CCN2C1 [Example 105, (7R,8aS)-2-[1-(quino-lin-6-yl-methyl)-1H-[1,2,3]tri-azolo[4,5-b]pyra-zin-6-yl]octa-hydropyrro-lo[12-a]pyra-zin-7-ol]
9 nM | OCCC1(CO)CCN(c2cnc3nnn(Cc4ccc5ncccc5c4)c3n2)C1 (stereo not shown) [Example 106, 2-{3-(hydroxy-methyl)-1-[1-(quino-lin-6-ylmethyl)-1H-[1,2,3]tri-azolo[4,5-b]pyra-zin-6-yl]pyr-rolidin-3-yl}ethanol]
47 nM | C[C@H]1CN(c2cnc3nnn(Cc4ccc5ncccc5c4)c3n2)C[C@]1(C)CO [Example 107, {(3R,4R)-3,4-di-methyl-1-[1-(quino-lin-6-yl-methyl)-1H-[1,2,3]tri-azolo[4,5-b]pyra-zin-6-yl]pyrro-lidin-3-yl}meth-anol]
26 nM | FC(F)c1nnc2n1CCN(c1cnc3nnn(Cc4ccc5ncccc5c4)c3n1)C2 [Example 108, 6-({6-[3-(di-fluoromethyl)-5,6-di-hydro[1,2,4]tri-azolo[4,3-a]pyrazin-7(8H)-yl]-1H-[1,2,3]tri-azolo[4,5-b]pyra-zin-1-yl}meth-yl)quinoline]
22 nM | CN(C)C(C(N)=O)C1CCN(c2cnc3nnn(Cc4ccc5ncccc5c4)c3n2)CC1 (stereo not shown) [Example 109, 2-(dimethyl-amino)-2-{1-[1-(quino-lin-6-yl-methyl)-1H-[1,2,3]tri-azolo[4,5-b]pyra-zin-6-yl]pipe-ridin-4-yl}acetamide]
23 nM | OCC[C@H]1CN(c2cnc3nnn(Cc4ccc5ncccc5c4)c3n2)C[C@H]1CO [Example 110, 2-{(3R,4S)-4-(hydroxy-methyl)-1-[1-(quino-lin-6-yl-methyl)-1H-[1,2,3]tri-azolo[4,5-b]pyra-zin-6-yl]pyrro-lidin-3-yl}eth-anol]
27 nM | CC(=O)NCCNc1cnc2nnn(Cc3ccc4ncccc4c3)c2n1 [Example 111, N-(2-{[1-(quino-lin-6-yl-methyl)-1H-[1,2,3]tri-azolo[4,5-b]pyra-zin-6-yl]ami-no}ethyl)aceta-mide]
29 nM | CCC(CO)Nc1cnc2nnn(Cc3ccc4ncccc4c3)c2n1 (stereo not shown) [Example 112, 2-{[1-(quinolin-6-yl-methyl)-1H-[1,2,3]tri-azolo[4,5-b]pyra-zin-6-yl]ami-no}butan-1-ol]
8 nM | CC(O)CNc1cnc2nnn(Cc3ccc4ncccc4c3)c2n1 (stereo not shown) [Example 113, 1-{[1-(quinolin-6-yl-methyl)-1H-[1,2,3]tri-azolo[4,5-b]pyra-zin-6-yl]ami-no}propan-2-ol]

Same assay, conditions: Ki, HGFR 50 nM, Met-2 peptide 0.5 mM, ATP 300 μM, 37° C., absorbance 340 nm

Compound | Ki
OCCN(CCO)c1cnc2nnn(Cc3ccc4ncccc4c3)c2n1 [Example 77, 2,2′-{[1-(quino-lin-6-yl-methyl)-1H-[1,2,3]tri-azolo[4,5-b]py-razin-6-yl]imi-no}diethanol] | 19 nM
c1cnc2ccc(Cn3nnc4ncc(N5CCc6nc[nH]c6C5)nc43)cc2c1 [Example 100, 6-{[6-(3,4,6,7-tetra-hydro-5H-imi-dazo[4,5-c]pyri-din-5-yl)-1H-[1,2,3]tri-azolo[4,5-b]pyra-zin-1-yl]meth-yl}quinoline] | 37 nM
Cc1nccn1CC1(O)CCN(c2cnc3nnn(Cc4ccc5ncccc5c4)c3n2)C1 (stereo not shown) [Example 104, 3-[(2-methyl-1H-imi-dazol-1-yl)meth-yl]-1-[1-(quino-lin-6-yl-methyl)-1H-[1,2,3]tri-azolo[4,5-b]pyra-zin-6-yl]pyrro-lidin-3-ol] | 49 nM
